Data published in patent publication US20220323521A1, “Compositions and Uses for Engineered Therapeutic Microbes and Associated Receptors” (The Brigham and Women`s Hospital, Inc., priority 2019, published 2022).

B1: H7-2: human P2Y2 receptor mutant A76T A229V F307S (protein, UniProt P41231 1-377, looked up, variant A76T A229V F307S)
P2Y purinoceptor 2: MAADLGPWNDTINGTWDGDELGYRCRFNEDFKYVLLPVSYGVVCVPGLCLNAVALYIFLCRLKTWNASTTYMFHLTVSDALYAASLPLLVYYYARGDHWPFSTVLCKLVRFLFYTNLYCSILFLTCISVHRCLGVLRPLRSLRWGRARYARRVAGAVWVLVLACQAPVLYFVTTSARGGRVTCHDTSAPELFSRFVAYSSVMLGLLFAVPFAVILVCYVLMARRLLKPVYGTSGGLPRAKRKSVRTIAVVLAVFALCFLPFHVTRTLYYSFRSLDLSCHTLNAINMAYKVTRPLASANSCLDPVLYSLAGQRLVRFARDAKPPTGPSPATPARRRLGLRRSDRTDMQRIEDVLGSSEDSRRTESTPAGSENTKDIRL
B2: 18R2-18: human P2Y2 receptor mutant W16R V90A A295V (protein, UniProt P41231 1-377, looked up, variant W16R V90A A295V)
P2Y purinoceptor 2: MAADLGPWNDTINGTRDGDELGYRCRFNEDFKYVLLPVSYGVVCVPGLCLNAVALYIFLCRLKTWNASTTYMFHLAVSDALYAASLPLLAYYYARGDHWPFSTVLCKLVRFLFYTNLYCSILFLTCISVHRCLGVLRPLRSLRWGRARYARRVAGAVWVLVLACQAPVLYFVTTSARGGRVTCHDTSAPELFSRFVAYSSVMLGLLFAVPFAVILVCYVLMARRLLKPAYGTSGGLPRAKRKSVRTIAVVLAVFALCFLPFHVTRTLYYSFRSLDLSCHTLNAINMAYKVTRPLVSANSCLDPVLYFLAGQRLVRFARDAKPPTGPSPATPARRRLGLRRSDRTDMQRIEDVLGSSEDSRRTESTPAGSENTKDIRL
B3: H1-1: human P2Y2 receptor mutant F58C C60Y G310A (protein, UniProt P41231 1-377, looked up, variant F58C C60Y G310A)
P2Y purinoceptor 2: MAADLGPWNDTINGTWDGDELGYRCRFNEDFKYVLLPVSYGVVCVPGLCLNAVALYICLYRLKTWNASTTYMFHLAVSDALYAASLPLLVYYYARGDHWPFSTVLCKLVRFLFYTNLYCSILFLTCISVHRCLGVLRPLRSLRWGRARYARRVAGAVWVLVLACQAPVLYFVTTSARGGRVTCHDTSAPELFSRFVAYSSVMLGLLFAVPFAVILVCYVLMARRLLKPAYGTSGGLPRAKRKSVRTIAVVLAVFALCFLPFHVTRTLYYSFRSLDLSCHTLNAINMAYKVTRPLASANSCLDPVLYFLAAQRLVRFARDAKPPTGPSPATPARRRLGLRRSDRTDMQRIEDVLGSSEDSRRTESTPAGSENTKDIRL

Legend:
human P2Y2 receptor [1] = assay: Flow cytometry evaluation of response to ATP and UTP (pFUS1-mCherry mating pathway reporter in yeast strain BS016); format: cell-based; conditions: for ATP Linear Range μM / ATP Max Response (±SE) / ATP Dynamic Range / ATP Linear Range: ligand eATP; for ATP Max Response (±SE) / UTP Max Response (±SE): normalized to maximum mating pathway activation by WT human P2Y2 receptor with eATP; for ATP Dynamic Range / UTP Dynamic Range: ratio of highest fluorescence versus 10% signal saturation; for UTP Max Response (±SE): unit assumed; for Follow-up Test Results: response/sensitivity to ATP versus WT, post-sorting follow-up; for signaling in the absence of agonist (constitutive activity): no agonist
Description: (§1) Flow cytometry evaluation of response to ATP and UTP. Yeast strain BS016 transformed with a human P2Y2 gene in the pRS316 pTDH3 vector was grown in SC-URA liquid media overnight. The same strain transformed with a plasmid not containing a P2Y2 sequence (Vector) was used as a negative control. Cells were diluted to OD600 0.05 in 600 μL SC-URA containing ATP (0-25.6 mM; pH 7.0, Bio Basic) or UTP (0-3.2 mM; pH 7.0, Sigma-Aldrich) and incubated for 6 hours at 30° C. Cells were then treated with cycloheximide to a final concentration of 10 μg/mL. The mCherry signal of at least 10,000 cells was measured for each sample with a Miltenyi Biotec MACSQuant VYB. The mean mCherry fluorescence was determined using FlowJo. For dose-response assays, data was fitted with the “log(agonist) vs. response—Variable slope (four parameters)” model in Prism (GraphPad). After subtracting the mCherry fluorescence signal of the Vector control, fluorescence values were normalized to the wild-type P2Y2 control used in the same experiment, to allow comparisons between experiments performed on different days.
(§2) Directed evolution of human P2Y2 receptor. Error-prone PCR mutagenesis was performed using the Agilent GeneMorph II Random Mutagenesis Kit with yeast codon-optimized human P2Y2 as a template, using previously described methods (104). 150 ng of template DNA and 30 cycles achieved the desired mutation rate of ˜3 mutations per P2Y2 gene, determined by sequencing 12 randomly selected plasmids (Table 2). The random mutants were inserted into pRS316 pTDH3 using AarI-based cloning and transformed into NEB 5-alpha competent E. coli cells (New England Biolabs) generating >15,000 individual colonies. Cells were scraped off agar plates, mixed together, and plasmid DNA was extracted (QIAQuick Spin Miniprep Kit, Qiagen) to create the final plasmid library. The library was transformed into yeast strain BS016 using a high-efficiency lithium acetate-based method (105), yielding at least 10-fold the number of colonies as the total library size, so that each mutant would be screened multiple times. Transformed cells were incubated overnight, then diluted to OD600 0.05 into fresh 100 mL SC-URA liquid media containing 100 μM ATP (pH 7.0, Biobasic), and incubated for either 18 or 6 hours at 30° C. (FIG. 8). After brief sonication, 10^6-10^7 cells were gated by side and forward scatter and sorted for the highest ˜1% of mCherry signal using a BD Influx cell sorter (106). A total of 174 yeast colonies recovered from various sorting experiments were individually screened for their response to 100 μM UTP, 100 μM ATP, or with no ligand, after a 6-hour incubation. Plasmids were isolated from selected colonies by first incubating with zymolase (BioShop Canada) then extracting plasmid DNA (QIAQuick Spin Miniprep Kit, Qiagen). Plasmid DNA was amplified using NEB 5-alpha competent E. coli cells (New England Biolabs), the plasmid DNA was sequenced, and fresh BS016 yeast cells were transformed for dose-response experiments.
(§3) Maximum response values were normalized to the maximum mating pathway activation provided by the WT human P2Y2 receptor incubated with eATP. Dynamic range was the ratio of the highest fluorescence obtained in the presence of the indicated ligand versus 10% signal saturation. Linear range was the series of ligand concentrations for which a change in signal can be detected. The minimum limit of the linear range was estimated as the ligand concentration corresponding to 10% signal saturation. Data represents the mean of six colonies for eATP, three colonies for eUTP.

human P2Y2 receptor [2] = target: T1, human P2Y2 receptor (Homo sapiens, UniProt P41231); assay: as above; format: cell-based; conditions: for EC50: agonist on WT human P2Y2 in Gpa1-Gαi3 pFUS1-mCherry strain
T1 construct: expressed in transfected cells; host or cells: Saccharomyces cerevisiae strain BS016 (Gpa1-Gαi3 chimera, pFUS1-mCherry reporter), plasmid pRS316 pTDH3
Description: as §1, §2, §3

[3] = ligand concentrations for which a change in signal can be detected
[4] = ligand eUTP, ligand concentrations for which a change in signal can be detected

T1 sequence (P41231 whole entry): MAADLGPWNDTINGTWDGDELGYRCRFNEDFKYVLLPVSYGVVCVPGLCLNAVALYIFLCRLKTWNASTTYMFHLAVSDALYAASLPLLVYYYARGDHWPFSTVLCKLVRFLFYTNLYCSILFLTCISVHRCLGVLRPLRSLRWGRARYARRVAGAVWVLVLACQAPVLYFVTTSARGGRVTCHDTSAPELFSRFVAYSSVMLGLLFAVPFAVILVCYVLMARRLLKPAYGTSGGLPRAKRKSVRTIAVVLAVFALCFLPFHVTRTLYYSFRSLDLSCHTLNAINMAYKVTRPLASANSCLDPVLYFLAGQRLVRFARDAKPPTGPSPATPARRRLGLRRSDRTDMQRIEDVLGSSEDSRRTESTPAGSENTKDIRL

| Molecule | ATP Linear Range μM (human P2Y2 receptor [1]; [3]) | ATP Max Response (±SE) (human P2Y2 receptor [1]) [%] | ATP Dynamic Range (human P2Y2 receptor [1]) | UTP Linear Range (human P2Y2 receptor [1]; [4]) [µM] | UTP Max Response (±SE) (human P2Y2 receptor [1]; ligand eUTP) [%] | UTP Dynamic Range (human P2Y2 receptor [1]; ligand eUTP) | EC50 (human P2Y2 receptor [2]) [µM] | Follow-up Test Results (human P2Y2 receptor [1]) | ATP Linear Range (human P2Y2 receptor [1]; [3]) [µM] | signaling in the absence of agonist (constitutive activity) (human P2Y2 receptor [1]) | response to 100 μM eATP (mCherry expression) (human P2Y2 receptor [2]; 100 μM eATP) | UTP Linear Range μM (human P2Y2 receptor [1]; [4]) |
| --- | --- | --- | --- | --- | --- | --- | --- | --- | --- | --- | --- | --- |
| TM-4: human P2Y2 receptor mutant L162I Q165H | 0.5-8,950^ μM | 137 | 10 | 0.07 to 31 | 69 | 7 |  |  |  |  |  |  |
| O=c1ccn([C@@H]2O[C@H](COP(=O)(O)OP(=O)(O)OP(=O)(O)O)[C@@H](O)[C@H]2O)c(=O)[nH]1 [eUTP, uridine triphosphate, reference compound] |  |  |  |  |  |  | 123 |  |  |  |  |  |
| Nc1ncnc2c1ncn2[C@@H]1O[C@H](COP(=O)(O)OP(=O)(O)OP(=O)(O)O)[C@@H](O)[C@H]1O [eATP, adenosine triphosphate, reference compound] |  |  |  |  |  |  | 1860 |  |  |  |  |  |
| 6R1-2: human P2Y2 receptor mutant I214T [Mutant 6R1-2] |  |  |  |  |  |  |  | No different than WT, not selected for |  |  |  |  |
| TM-3: human P2Y2 receptor mutant N116S |  | 110 | 5 | 0.04 to 63 | 86 | 5 |  |  | 0.9 to 284 | increased responsiveness and signaling in the absence of agonist (constitutive activity) |  |  |
| H1-4: human P2Y2 receptor mutant F58L S359P [Mutant H1-4] | 5-3,882 μM | 110 | 9 | 0.2 to 61 | 96 | 7 |  |  |  |  |  |  |
| H1-3: human P2Y2 receptor mutant F58I [Mutant H1-3] | 4-3,945 μM | 152 | 10 | 0.4 to 550 | 122 | 8 |  |  |  |  |  |  |
| TM-2: human P2Y2 receptor mutant L59I C119S | 3-2,243 μM | 165 | 9 | 0.9 to 169 | 143 | 8 |  |  |  |  |  |  |
| WT: wild-type human P2Y2 receptor (NP_002555.4), yeast codon-optimized [reference compound] | 113-25,600 μM | 100 | 8 |  | 98 | 9 |  |  |  |  | weak response | 4-1,374 μM |
| H1-2: human P2Y2 receptor mutant F58L [Mutant H1-2] | 4-4,966 μM | 122 | 9 | 0.05 to 22 | 101 | 6 |  |  |  |  |  |  |
| 18R2-23: human P2Y2 receptor mutant V250A [Mutant 18R2-23] |  |  |  |  |  |  |  | No different than WT, not selected for |  |  |  |  |
| 18R2-2: human P2Y2 receptor mutant L112S A176V [Mutant 18R2-2] |  |  |  |  |  |  |  | No different than WT, not selected for |  |  |  |  |
| H7-1: human P2Y2 receptor mutant K240N F307S [Mutant H7-1] |  | 181 | 3 | 0.02 to 3.1 | 199 | 3 |  |  | 0.3 to 18 | increased responsiveness and signaling in the absence of agonist (constitutive activity) |  |  |
| B1 |  | 90 | 2 | 0.01 to 6 | 84 | 3 |  |  | 0.3 to 23 | increased responsiveness and signaling in the absence of agonist (constitutive activity) |  |  |
| B2 |  |  |  |  |  |  |  | inconsistent results |  |  |  |  |
| B3 |  | 149 | 5 | 0.05 to 12 | 128 | 4 |  |  | 0.5 to 184 |  |  |  |
